Test results taken from PubChem BioAssay (NCI).
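Here, GI50 denotes the concentration required for 50% inhibition of growth. TGI: concentration producing complete growth inhibition.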

What was measured:
Assay in all cases: NCI tumour cell line growth inhibition, 384-well format
[1] = test system: HOP-92 NSCLC
[2] = test system: MDA-MB-231 breast
[3] = test system: U251 glioblastoma
[4] = test system: KM12 colon
[5] = test system: MDA-MB-435 melanoma
[6] = test system: DU-145 prostate
[7] = test system: TK-10 renal
[8] = test system: ACHN renal
[9] = test system: NCI-H460 NSCLC
[10] = test system: MDA-MB-468 breast
[11] = test system: HCC-2998 colon
[12] = test system: HCT-116 colon
[13] = test system: A498 renal
[14] = test system: NCI-H226 lung
[15] = test system: NCI-H23 lung
[16] = test system: MCF7 breast
[17] = test system: NCI-H522 lung
[18] = test system: SNB-75 CNS
[19] = test system: SF-539 CNS
[20] = test system: HCT-15 colon
[21] = test system: 786-0 renal
[22] = test system: PC-3 prostate
[23] = test system: HOP-62 NSCLC
[24] = test system: M14 melanoma
[25] = test system: UACC-257 melanoma
[26] = test system: EKVX NSCLC
[27] = test system: HL-60(TB) leukemia
[28] = test system: MALME-3M melanoma
[29] = test system: SW-620 colon
[30] = test system: OVCAR-8 ovarian
[31] = test system: SK-MEL-5 melanoma
[32] = test system: CAKI-1 renal
[33] = test system: HS 578T breast
[34] = test system: OVCAR-4 ovarian
[35] = test system: BT-549 breast
[36] = test system: SF-268 CNS
[37] = test system: OVCAR-3 ovarian
[38] = test system: K-562 leukemia
[39] = test system: RPMI-8226 leukemia
[40] = test system: SF-295 CNS
[41] = test system: IGROV1 ovarian
[42] = test system: SK-OV-3 ovarian
[43] = test system: HT29 colon
[44] = test system: MOLT-4 leukemia
[45] = test system: NCI/ADR-RES ovarian
[46] = test system: SNB-19 CNS
[47] = test system: T-47D breast
[48] = test system: COLO 205 colon
[49] = test system: CCRF-CEM leukemia
[50] = test system: NCI-H322M lung
[51] = test system: UO-31 renal
[52] = test system: SK-MEL-28 melanoma
[53] = test system: A549 NSCLC
[54] = test system: RXF 393 renal
[55] = test system: SN12C renal
[56] = test system: LOX IMVI melanoma
[57] = test system: UACC-62 melanoma

COc1cc2nc(N3CCCN(C)CC3)nc(NC3CCN(Cc4ccccc4)CC3)c2cc1OC
GI50 [1]: 1.38 µM
TGI [1]: 2.72 µM
GI50 [2]: 0.725 µM
TGI [2]: 2.11 µM
GI50 [3]: 1.15 µM
TGI [3]: 2.39 µM
GI50 [4]: 0.434 µM
TGI [4]: 1.67 µM
GI50 [5]: 1.57 µM
TGI [5]: 2.93 µM
GI50 [6]: 1.38 µM
TGI [6]: 2.73 µM
GI50 [7]: 1.18 µM
TGI [7]: 2.5 µM
GI50 [8]: 1.65 µM
TGI [8]: 3.04 µM
GI50 [9]: 0.456 µM
TGI [9]: 1.5 µM
GI50 [10]: 1.2 µM
TGI [10]: 2.45 µM
GI50 [11]: 0.867 µM
TGI [11]: 2.13 µM
GI50 [12]: 0.351 µM
TGI [12]: 1.02 µM
GI50 [13]: 0.625 µM
TGI [13]: 1.83 µM
GI50 [14]: 1.59 µM
TGI [14]: 3.18 µM
GI50 [15]: 1.56 µM
TGI [15]: 3.16 µM
GI50 [16]: 0.694 µM
TGI [16]: 2.02 µM
GI50 [17]: 1.43 µM
TGI [17]: 2.75 µM
GI50 [18]: 1.66 µM
TGI [18]: 3.04 µM
GI50 [19]: 0.339 µM
TGI [19]: 0.916 µM
GI50 [20]: 0.611 µM
TGI [20]: 1.9 µM
GI50 [21]: 1.3 µM
TGI [21]: 2.59 µM
GI50 [22]: 1.14 µM
TGI [22]: 2.55 µM
GI50 [23]: 1.76 µM
TGI [23]: 3.17 µM
GI50 [24]: 0.6 µM
TGI [24]: 1.85 µM
GI50 [25]: 0.178 µM
TGI [25]: 0.319 µM
GI50 [26]: 1.65 µM
TGI [26]: 3.62 µM
GI50 [27]: 0.233 µM
TGI [27]: 0.541 µM
GI50 [28]: 1.15 µM
TGI [28]: 2.37 µM
GI50 [29]: 0.405 µM
TGI [29]: 1.45 µM
GI50 [30]: 1.03 µM
TGI [30]: 2.24 µM
GI50 [31]: 0.968 µM
TGI [31]: 2.16 µM
GI50 [32]: 0.578 µM
TGI [32]: 1.83 µM
GI50 [33]: 1.48 µM
TGI [33]: 2.81 µM
GI50 [34]: 1.01 µM
TGI [34]: 2.19 µM
GI50 [35]: 1.09 µM
TGI [35]: 2.3 µM
GI50 [36]: 0.943 µM
TGI [36]: 2.14 µM
GI50 [37]: 0.54 µM
TGI [37]: 1.71 µM
GI50 [38]: 0.163 µM
TGI [38]: 0.366 µM
GI50 [39]: 0.449 µM
TGI [39]: 1.54 µM
GI50 [40]: 1.55 µM
TGI [40]: 2.89 µM
GI50 [41]: 1.85 µM
TGI [41]: 3.83 µM
GI50 [42]: 1.35 µM
TGI [42]: 2.66 µM
GI50 [43]: 0.395 µM
TGI [43]: 1.32 µM
GI50 [44]: 0.538 µM
TGI [44]: 1.84 µM
GI50 [45]: 4.78 µM
TGI [45]: 15.9 µM
GI50 [46]: 1.51 µM
TGI [46]: 3.34 µM
GI50 [47]: 1.78 µM
TGI [47]: 3.2 µM
GI50 [48]: 1.34 µM
TGI [48]: 2.64 µM
GI50 [49]: 0.227 µM
TGI [49]: 0.622 µM
GI50 [50]: 1.44 µM
TGI [50]: 2.84 µM
GI50 [51]: 1.78 µM
TGI [51]: 3.18 µM
GI50 [52]: 1.64 µM
TGI [52]: 3.02 µM
GI50 [53]: 1.66 µM
TGI [53]: 3.08 µM
GI50 [54]: 0.572 µM
TGI [54]: 1.89 µM
GI50 [55]: 1.72 µM
TGI [55]: 3.22 µM
GI50 [56]: 1.54 µM
TGI [56]: 2.89 µM
GI50 [57]: 1.28 µM
TGI [57]: 2.57 µM
